Assay results as given in patent US20260217716A1, “ANDROGEN RECEPTOR MODULATORS AND METHODS FOR THEIR USE” (Capulus Therapeutics, LLC, priority 2022, published 2026).
Numbering of substitutions follows the chain as printed. pIC50: −log10 of the molar value.

What was measured:
[1] = target: T1, human AR (Homo sapiens, UniProt P10275); assay: Indigo Biosciences AR reporter cell assay (AR inhibition, antagonist mode); assay type: cell-based; conditions: Table 2; luciferase reporter cells, 24 hr, EC80 of agonist 5α-dihydro-11-keto testosterone; read-out: AR Inhibition Indigo Cell Based: Avg IC50
T1 construct: Reporter Cells used in these assays expressed a native receptor (AR)
T1 sequence (P10275 1-920): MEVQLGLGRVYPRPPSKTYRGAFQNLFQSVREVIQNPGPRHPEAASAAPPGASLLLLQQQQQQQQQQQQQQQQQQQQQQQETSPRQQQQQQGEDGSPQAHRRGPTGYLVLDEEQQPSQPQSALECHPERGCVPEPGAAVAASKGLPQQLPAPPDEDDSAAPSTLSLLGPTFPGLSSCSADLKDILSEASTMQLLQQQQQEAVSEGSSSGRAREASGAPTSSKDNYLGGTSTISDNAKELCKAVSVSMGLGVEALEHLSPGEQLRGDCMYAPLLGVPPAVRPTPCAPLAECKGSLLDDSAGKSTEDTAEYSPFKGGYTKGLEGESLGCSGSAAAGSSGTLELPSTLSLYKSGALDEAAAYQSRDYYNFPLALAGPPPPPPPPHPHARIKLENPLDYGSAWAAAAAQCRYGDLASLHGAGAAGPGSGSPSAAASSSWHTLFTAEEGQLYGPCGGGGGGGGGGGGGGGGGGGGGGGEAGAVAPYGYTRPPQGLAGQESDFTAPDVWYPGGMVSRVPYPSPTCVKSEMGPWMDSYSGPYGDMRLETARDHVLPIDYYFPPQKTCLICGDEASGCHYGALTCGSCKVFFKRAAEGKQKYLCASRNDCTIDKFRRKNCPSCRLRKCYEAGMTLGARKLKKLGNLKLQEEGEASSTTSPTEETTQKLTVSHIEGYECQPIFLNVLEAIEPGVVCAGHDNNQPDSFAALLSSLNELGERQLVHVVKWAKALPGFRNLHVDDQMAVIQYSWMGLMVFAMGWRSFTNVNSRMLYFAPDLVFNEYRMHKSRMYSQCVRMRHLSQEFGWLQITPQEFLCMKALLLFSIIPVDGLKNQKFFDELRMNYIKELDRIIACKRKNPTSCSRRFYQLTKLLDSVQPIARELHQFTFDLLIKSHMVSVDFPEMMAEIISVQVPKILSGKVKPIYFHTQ
Experimental: The aim of this study was to evaluate compounds 1-12 and the comparative compounds 1-2 for inhibition activities against human AR. Reporter Cells used in these assays expressed a native receptor (AR). The reporter gene, firefly luciferase, is functionally linked to an upstream receptor-specific genetic response element (GRE). Reporter cells were treated with eight concentrations, starting at 50 μM and following with 3.17-fold dilutions. Single treatment concentration was performed (n=1). Assay performance was validated using the reference antagonist hydroxy flutamide. • Step 1: A suspension of reporter cells was prepared in Cell Recovery Medium (CRM). Reporter cells were first supplemented with 2×-EC80 concentration of the reference agonist, 5α-dihydro-11-keto testosterone, then 100 μl of the Reporter Cell suspension was dispensed into wells of a white 96-well assay plate. • Step 2: Test compound master stocks were diluted in DMSO to generate solutions at ‘500×-concentration’ relative to the final treatment concentration and diluted directly into INDIGO's Compound Screening Medium (CSM; containing charcoal-stripped FBS) to generate ‘2×-concentration’ treatment media. This was diluted into the wells to the final concentration. Assay plates were incubated at 37° C., 5% CO2 and ~70% humidity for 24 hr. • Step 3: Following the incubation period, wells were rinsed once with Live Cell Multiplex (LCM) Buffer, then LCM substrate was added. Following incubation at room temperature for 15 min, LCM substrate was discarded and 100 μL/well of luciferase detection reagent was added. Subsequently, fluorescence was measured to determine the relative number of live cells per assay well. RLU values were quantified after a 10 min incubation period at room temperature to determine nuclear receptor activities.

[2] = target: T2, Human androgen receptors (Homo sapiens, UniProt P10275, T878A); assay: Biochemical AR LBD antagonism (Eurofins AR radioligand binding assay); conditions: Table 4; read-out: Biochemical AR LBD Antagonism: Average IC50
T2 construct: Human androgen receptors obtained from human LNCaP cells were used; host or cells: human LNCaP cells
T2 sequence (P10275 1-920 T878A): T1 sequence (P10275 1-920) with T878A
Experimental: Human androgen receptors obtained from human LNCaP cells were used in modified HEPES buffer pH 7.4. A 70 μg‡ aliquot was incubated with 0.5 nM [3H] Methyltrienolone for 20 h at 4° C. Non-specific binding was estimated in the presence of 1 μM testosterone. Receptors were filtered and washed, the filters were then counted to determine [3H] Methyltrienolone specifically bound. Compounds were screened at 10 μM.
Furthermore, as noted earlier, most clinically relevant AR inhibitors target the ligand binding domain (LBD) of the androgen receptor, and these inhibitors can lose efficacy due to point mutations in the LBD. Given that the AR protein contains multiple sub-domains, targeting other domains is an attractive approach for new inhibitors. […] Therefore, the compounds as described herein may be interacting with other subdomains in the AR protein, namely the N-terminal domain.

[3] = Human liver microsome stability; assay type: in vitro ADME; conditions: Table 6, human liver microsomes, 1 μM
Experimental: (§1) Preincubation mixture 2.5 μL Test Cpd. +75 μL Liver microsomes (human or mouse source) @ 3.33 mg/mL+85 µL of 100 mM potassium phosphate buffer (preincubate for 10 min @ 37° C.). Incubation mixture 62 μL of cofactor (2.85 mM)+Remaining incubation mixture (Incubated for 60 min @ 37° C.). Sample preparation 25 μL incubation mixture+200 μL of acetonitrile containing internal standard+Vortex 5 min @ 1200 rpm+Centrifuge 10 min @ 4000 rpm. Supernatant diluted 2-fold with water and injected on LC-MS/MS.

[4] = Mouse liver microsome stability; assay type: in vitro ADME; conditions: Table 6, mouse liver microsomes, 1 μM
Experimental: as §1

pIC50 [1] | pIC50 [2] | Human LM: Rem @ 60 min [3] | Mouse LM: Rem @ 60 min [4] | SMILES
6.30 to 7.29 | < 6.30 | +++ (>60.1: “+++”) | +++ (>60.1: “+++”) | Cc1nnc2ccc(N[C@H](C)c3ccc(F)cc3)nn12 [Compound 10, (R)—N-(1-(4-fluorophenyl)ethyl)-3-methyl-[1,2,4]triazolo[4,3-b]pyridazin-6-amine]
6.30 to 7.29 | < 6.30 | +++ (>60.1: “+++”) | +++ (>60.1: “+++”) | C[C@@H](Nc1ccc2nnc(C(F)F)n2n1)c1ccc(F)cc1 [Compound 12]
